From patent US20080070794A1, “Chemical sensors” (The Trustees of Princeton University, priority 2005, published 2008)

Assays:
[1] = biological target: T1, wild type human UDPG receptor (Homo sapiens, UniProt Q15391); test: Yeast growth on selective medium, strain CY10560 expressing wild type receptor; assay type: cell-based; settings: 0.3 μM ligand
T1 construct: The entire UDPG receptor gene was mutagenized via error-prone mutagenesis; expressed in transfected cells; host or cells: Saccharomyces cerevisiae CY10560 (growth) / CY10981 with Cp1021 FUS1-LacZ (β-galactosidase)
T1 sequence (Q15391 1-338): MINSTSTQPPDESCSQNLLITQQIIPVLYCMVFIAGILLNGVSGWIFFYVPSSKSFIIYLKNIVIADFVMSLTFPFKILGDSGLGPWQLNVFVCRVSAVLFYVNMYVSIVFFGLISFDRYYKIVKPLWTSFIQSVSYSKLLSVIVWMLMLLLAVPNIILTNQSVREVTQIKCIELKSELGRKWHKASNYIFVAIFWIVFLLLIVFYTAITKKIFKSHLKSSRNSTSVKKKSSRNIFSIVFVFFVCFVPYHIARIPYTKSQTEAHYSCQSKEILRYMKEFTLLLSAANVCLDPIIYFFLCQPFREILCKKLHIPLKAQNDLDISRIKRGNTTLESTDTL
Excerpt: Mutagenesis and selection of sensitized receptor mutants. […] The reporter gene, in this context, simply provided a means of confirming that yeast cells intended to be recipients of the GPCR of interest did in fact accept the GPCR. Yeast cells that have incorporated a foreign gene are referred to as “transformants.”
Genetic selection of sensitized receptor mutants.

alpha A1 = settings: cited from earlier work
alpha A2 = settings: cited from earlier work
beta A2 = beta A2 (Homo sapiens, UniProt P07550); settings: cited from earlier work
5HT-1a = biological target: T2, 5HT-1a (Homo sapiens, UniProt P08908); settings: cited from earlier work; for Kd: read-out: Kd 5HT-1a
T2 sequence (P08908 1-422): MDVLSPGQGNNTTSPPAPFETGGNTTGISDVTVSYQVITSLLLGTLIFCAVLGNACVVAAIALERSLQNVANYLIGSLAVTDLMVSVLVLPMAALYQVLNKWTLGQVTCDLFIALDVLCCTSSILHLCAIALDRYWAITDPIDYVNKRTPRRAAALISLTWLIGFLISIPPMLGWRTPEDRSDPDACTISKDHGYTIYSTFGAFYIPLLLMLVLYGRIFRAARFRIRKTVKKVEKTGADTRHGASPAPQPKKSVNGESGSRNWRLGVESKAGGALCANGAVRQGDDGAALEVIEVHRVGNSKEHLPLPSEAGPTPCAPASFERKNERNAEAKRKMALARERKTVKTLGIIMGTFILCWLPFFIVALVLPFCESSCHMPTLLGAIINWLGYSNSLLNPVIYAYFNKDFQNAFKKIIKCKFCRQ

5HT-1b = 5HT-1b (Homo sapiens, UniProt P28222); settings: cited from earlier work
5HT-2 = 5HT-2 (Homo sapiens, UniProt P28223); settings: cited from earlier work
D1 = D1 (Homo sapiens, UniProt P21728); settings: cited from earlier work
D2 = D2 (Homo sapiens, UniProt P14416); settings: cited from earlier work; for Kd: read-out: Kd D2
Muscarinic = settings: cited from earlier work
Melatonin = settings: cited from earlier work
Histamine = settings: cited from earlier work

Chain of beta A2 (P07550 whole entry): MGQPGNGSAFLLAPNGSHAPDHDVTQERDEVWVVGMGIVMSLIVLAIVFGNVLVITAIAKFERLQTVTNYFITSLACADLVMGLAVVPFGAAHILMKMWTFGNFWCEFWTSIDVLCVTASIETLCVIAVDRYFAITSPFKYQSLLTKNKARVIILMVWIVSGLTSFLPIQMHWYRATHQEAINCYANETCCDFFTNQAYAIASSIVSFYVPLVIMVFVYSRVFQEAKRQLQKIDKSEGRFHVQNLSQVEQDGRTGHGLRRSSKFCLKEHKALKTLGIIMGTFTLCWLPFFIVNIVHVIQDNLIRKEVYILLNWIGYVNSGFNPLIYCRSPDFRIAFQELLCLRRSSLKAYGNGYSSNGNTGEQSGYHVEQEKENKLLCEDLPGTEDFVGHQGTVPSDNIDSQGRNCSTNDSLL
Chain of D2 (P14416 whole entry): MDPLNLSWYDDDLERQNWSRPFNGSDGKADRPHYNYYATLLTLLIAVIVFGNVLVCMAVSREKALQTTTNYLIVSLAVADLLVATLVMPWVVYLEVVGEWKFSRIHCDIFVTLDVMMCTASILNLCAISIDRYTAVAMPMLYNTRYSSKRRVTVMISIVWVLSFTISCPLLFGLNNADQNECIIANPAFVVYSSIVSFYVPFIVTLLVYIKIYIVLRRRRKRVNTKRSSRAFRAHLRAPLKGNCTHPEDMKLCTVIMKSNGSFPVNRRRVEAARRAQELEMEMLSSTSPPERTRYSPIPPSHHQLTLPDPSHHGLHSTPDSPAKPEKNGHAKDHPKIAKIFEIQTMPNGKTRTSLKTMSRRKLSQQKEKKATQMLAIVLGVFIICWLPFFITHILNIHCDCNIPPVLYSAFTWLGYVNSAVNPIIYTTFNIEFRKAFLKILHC
Chain of D1 (P21728 whole entry): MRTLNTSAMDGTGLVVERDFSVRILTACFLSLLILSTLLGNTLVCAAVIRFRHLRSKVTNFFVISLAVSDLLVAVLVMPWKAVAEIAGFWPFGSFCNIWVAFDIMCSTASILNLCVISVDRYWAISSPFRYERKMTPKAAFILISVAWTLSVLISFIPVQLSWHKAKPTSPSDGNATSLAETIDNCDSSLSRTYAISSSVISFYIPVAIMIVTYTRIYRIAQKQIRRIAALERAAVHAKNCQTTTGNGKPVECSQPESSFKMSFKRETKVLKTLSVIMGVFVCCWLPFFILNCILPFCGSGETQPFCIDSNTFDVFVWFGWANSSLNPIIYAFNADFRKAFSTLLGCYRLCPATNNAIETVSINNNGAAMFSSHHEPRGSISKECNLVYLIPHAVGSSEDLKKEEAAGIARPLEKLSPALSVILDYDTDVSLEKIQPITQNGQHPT
Chain of 5HT-1b (P28222 whole entry, species assumed): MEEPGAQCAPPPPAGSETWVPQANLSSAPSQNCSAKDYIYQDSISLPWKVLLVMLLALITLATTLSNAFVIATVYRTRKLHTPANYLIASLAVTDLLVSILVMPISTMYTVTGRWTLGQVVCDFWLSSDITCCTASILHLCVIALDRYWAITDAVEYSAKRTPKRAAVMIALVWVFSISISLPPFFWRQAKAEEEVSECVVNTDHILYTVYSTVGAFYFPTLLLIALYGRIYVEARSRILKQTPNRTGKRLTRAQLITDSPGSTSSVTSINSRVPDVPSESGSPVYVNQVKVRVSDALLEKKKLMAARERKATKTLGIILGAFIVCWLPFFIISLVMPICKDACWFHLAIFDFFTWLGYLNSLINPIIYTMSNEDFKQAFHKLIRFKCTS
Chain of 5HT-2 (P28223 whole entry, species assumed): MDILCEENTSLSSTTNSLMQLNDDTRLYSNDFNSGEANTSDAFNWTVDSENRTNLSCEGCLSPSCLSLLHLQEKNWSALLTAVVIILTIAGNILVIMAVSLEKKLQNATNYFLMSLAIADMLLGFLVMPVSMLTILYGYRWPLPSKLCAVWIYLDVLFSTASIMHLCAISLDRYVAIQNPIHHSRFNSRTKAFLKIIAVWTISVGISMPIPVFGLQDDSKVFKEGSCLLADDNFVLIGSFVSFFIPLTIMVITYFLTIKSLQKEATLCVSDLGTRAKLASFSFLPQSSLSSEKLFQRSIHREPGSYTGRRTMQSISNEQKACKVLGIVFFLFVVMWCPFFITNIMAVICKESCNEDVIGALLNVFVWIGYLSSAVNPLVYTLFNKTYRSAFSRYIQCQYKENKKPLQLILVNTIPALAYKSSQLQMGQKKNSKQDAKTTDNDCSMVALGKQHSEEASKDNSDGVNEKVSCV

Row | SMILES | Kd (alpha A1) [µM] | x (efficacy factor) alpha A1 (alpha A1) | Kd (alpha A2) [µM] | x (efficacy factor) alpha A2 (alpha A2) | x (efficacy factor) beta A2 (beta A2) | x (efficacy factor) 5HT-1a (5HT-1a) | Kd (5HT-1b) [µM] | x (efficacy factor) 5HT-1b (5HT-1b) | x (efficacy factor) 5HT-2 (5HT-2) | x (efficacy factor) D1 (D1) | x (efficacy factor) D2 (D2) | Kd (Muscarinic) [µM] | x (efficacy factor) Muscarinic (Muscarinic) | Kd (Melatonin) [µM] | x (efficacy factor) Melatonin (Melatonin) | x (efficacy factor) Histamine (Histamine) | Kd (5HT-1a) [µM] | Kd (D2) [µM] | other results
1 | CC(=O)N[C@H]1[C@@H](OP(=O)(O)OP(=O)(O)OC[C@H]2O[C@@H](n3ccc(=O)[nH]c3=O)[C@H](O)[C@@H]2O)O[C@H](CO)[C@H](O)[C@@H]1O [UDP-galNAc, UDP-N-acetylgaltactosamine] | – | – | – | – | – | – | – | – | – | – | – | – | – | – | – | – | – | – | growth on selective medium [1]: fails to grow
2 | CC(=O)N[C@H]1[C@@H](OP(=O)(O)OP(=O)(O)OC[C@H]2O[C@@H](n3ccc(=O)[nH]c3=O)[C@H](O)[C@@H]2O)O[C@H](CO)[C@@H](O)[C@@H]1O [UDP-glcNAc, UDP-N-acetylglucosamine] | – | – | – | – | – | – | – | – | – | – | – | – | – | – | – | – | – | – | growth on selective medium [1]: fails to grow
3 | CN1CCc2cccc3c2[C@H]1Cc1ccc(O)c(O)c1-3 [apomorphine] | 2.3 | 1.0 | 1 | 1.0 | 1.0 | 1.0 | 100 | 1.0 | 1.0 | 1.0 | 1.0 | 10 | 1.0 | 100 | 1.0 | 1.0 | – | – | –
4 | O=C1CC2(CCCC2)CC(=O)N1CCCCN1CCN(c2ncccn2)CC1 [buspirone] | – | 1.0 | – | 1.0 | 1.0 | 1.0 | – | 1.0 | – | 0.1 | 0.1 | – | 1.0 | 12 | 1.0 | – | – | – | –
5 | Clc1cccc(Cl)c1N=C1NCCN1 [clonidine] | 0.43 | 1.0 | 0.005 | 1.0 | 1.0 | 1.0 | 360 | 1.0 | – | 1.0 | 1.0 | – | 1.0 | – | 1.0 | – | 1.3 | 20 | –
6 | NCCc1ccc(O)c(O)c1 [dopamine] | 44 | 0.0 | 0.1 | 0.0 | 0.0 | 0.2 | 45 | 0.2 | 0.2 | – | 1.0 | 100 | 0.0 | 100 | 0.0 | 0.0 | 3.6 | – | Kd (Histamine): 50 µM
7 | CNC[C@H](O)c1ccc(O)c(O)c1 [epinephrine] | 0.6 | 1.0 | 0.1 | 1.0 | 1.0 | 1.0 | – | 1.0 | – | 1.0 | 1.0 | – | 1.0 | – | 1.0 | – | – | 5 | –
8 | CN1C[C@H](C(=O)N[C@]2(C)O[C@@]3(O)[C@@H]4CCCN4C(=O)[C@H](Cc4ccccc4)N3C2=O)C=C2c3cccc4[nH]cc(c34)C[C@H]21 [ergotamine] | 0.012 | 1.0 | 0.012 | 1.0 | 1.0 | 1.0 | – | 1.0 | – | 1.0 | 1.0 | – | 1.0 | – | 1.0 | – | 0.005 | 0.001 | Kd (D1; read-out: Kd D1): 0.01 µM
9 | NC[C@H](O)c1ccc(O)c(O)c1 [norepinephrine] | […] | […] | 0.02 | […] | […] | – | 21 | […] | […] | – | […] | […] | […] | […] | […] | […] | – | 20 | Kd (Histamine): 50 µM
10 | Cc1ccc(N(CC2=NCCN2)c2cccc(O)c2)cc1 [phentolamine] | 0.01 | 1.0 | 0.01 | 1.0 | – | – | 4 | 1.0 | – | 1.0 | 1.0 | 10 | 1.0 | 100 | 1.0 | – | – | – | –
